Source: paper PMC9944328 (Nature Communications, 2023)
Read-outs that look alike come from different tables or passages of the source.

Test system: SSTR2 mutants
Assay: SSTRs Gi-mediated cAMP inhibition, GloSensor, HEK293, 5 μM forskolin, 15 min room temperature (SSTR2 mutants)
Assay type: cell-based, human
Experimental: The levels of the intracellular 3′, 5′-cyclic AMP (cAMP) were measured by the GloSensor cAMP assay (Promega) as described in the previous studies[28],[41] which has been widely used. The human full-length SSTRs and mutants were cloned into the pcDNA3.1+ vector with a HA signal sequence followed by a Flag tag at the N-terminus. HEK293 cells (ATCC, CRL-1573) were seeded into 6-well microplates at a density of 1.0 × 10^6 cells/well and cultured for 24 h at 37 °C with 5% CO2. Cells were then co-transfected with SSTR wild-type or mutants and GloSensor plasmids. After 24 h of transfection, the cells were dissociated with TrypLE™ Express Enzyme (1X) (Thermo Fisher Scientific) and collected by centrifugation at 500 × g for 5 min. Then the collected cells were suspended in Hank’s balanced salt solution [HBSS (Thermo Fisher Scientific)] supplemented with […] (YEASEN), and then the suspension cells were seeded into 96-well plates with 90 μl/well. After incubating at room temperature for 40 min, 5 μM forskolin and ligands diluted in HBSS were added to each well and the plates were incubated at room temperature for 15 min. […] were measured using the Synergy H1 microplate reader (BioTek) and the data presented are means of at least three independent experiments.

[1] = Suppl. Table 4, SSTR2 D295(7.36)F, n=3
[2] = Suppl. Table 4, SSTR2 F294(7.35)Y, n=3
[3] = Suppl. Table 4, SSTR2 I195(45.52)M, n=3
[4] = Suppl. Tables 4/5, SSTR2 V103(2.64)N, n=3
[5] = cAMP inhibition best-fit, F127A-1
[6] = cAMP inhibition best-fit, F127A-2
[7] = cAMP inhibition best-fit, F127A-3
[8] = cAMP inhibition best-fit, I130A-1
[9] = cAMP inhibition best-fit, I130A-2
[10] = cAMP inhibition best-fit, I130A-3
[11] = cAMP inhibition best-fit, Q102A-1
[12] = cAMP inhibition best-fit, Q102A-2
[13] = cAMP inhibition best-fit, Q102A-3
[14] = cAMP inhibition best-fit, V103A-1
[15] = cAMP inhibition best-fit, V103A-2
[16] = cAMP inhibition best-fit, V103A-3

## N#Cc1cccc(-c2ccc3ncc(-c4cc(F)cc(F)c4)c(N4CCC(N)CC4)c3c2)c1O [paltusotine]
P220A-2 (run 2)
  Span (best-fit value): 119.1
  Top (best-fit value): 123.6
P220A-3 (run 3)
  Bottom (best-fit value): 2.569
  LogEC50 (best-fit value): -8.511
  Span (best-fit value): 103.4
  Top (best-fit value): 106
Suppl. Table 4, SSTR2 D295(7.36)F
  Fold of WT: 0.67
[1]
  EC50: 1.39 ± 1.95 nM
  Emax: 75.57±7.43 %WT SSTR2
Suppl. Table 4, SSTR2 F294(7.35)Y
  Fold of WT: 0.48
[2]
  EC50: 0.99 ± 1.3 nM
  Emax: 103.10±3.86 %WT SSTR2
Suppl. Table 4, SSTR2 I195(45.52)M
  Fold of WT: 1.47
[3]
  EC50: 3.05 ± 1.57 nM
  Emax: 89.43±6.05 %WT SSTR2
Suppl. Table 4, SSTR2 Y205(5.35)R
  Fold of WT: 0.16
Suppl. Table 4, SSTR2 Y205(5.35)R, n=3
  EC50: 0.34 nM
Suppl. Tables 4/5, SSTR2 T194(45.51)H
  Fold of WT: 72.45
Suppl. Tables 4/5, SSTR2 T194(45.51)H, n=3
  Emax: 103.80±12.72 %WT SSTR2
Suppl. Tables 4/5, SSTR2 V103(2.64)N
  Fold of WT: 5.75
[4]
  EC50: 12 ± 1.33 nM
  Emax: 99.52±4.73 %WT SSTR2
T194(45.51)H in SSTR2
  Receptor activation of mutant: significantly reduced receptor activation
T194A, run 1, best-fit
  EC50: 54.2 nM
  LogEC50: -7.266
T194A, run 2, best-fit
  EC50: 52.7 nM
  LogEC50: -7.278
T194A, run 3, best-fit
  EC50: 125 nM
  LogEC50: -6.904
T194H, run 1
  Bottom (best-fit): 6.584
  EC50: 123 nM
  LogEC50: -6.909
  Span (best-fit): 95.8
  Top (best-fit): 102.4
T194H, run 2
  Bottom (best-fit): -1.67
  EC50: 151 nM
  LogEC50: -6.822
  Span (best-fit): 105.4
  Top (best-fit): 103.8
T194H, run 3
  Bottom (best-fit): -5.336
  EC50: 125 nM
  LogEC50: -6.902
  Span (best-fit): 128.8
  Top (best-fit): 123.4
V103(2.64)A
  Impact on Gi signaling: less impact on Gi signaling
V103(2.64)N in SSTR2
  Receptor activation of mutant: reduced receptor activation induced by paltusotine
V103N, run 1
  Bottom (best-fit): 8.462
  EC50: 11.7 nM
  LogEC50: -7.932
  Span (best-fit): 90.96
  Top (best-fit): 99.42
V103N, run 2
  Bottom (best-fit): -2.517
  EC50: 36.2 nM
  LogEC50: -7.441
  Span (best-fit): 109.6
  Top (best-fit): 107.1
V103N, run 3
  Bottom (best-fit): -1.625
  EC50: 11.7 nM
  LogEC50: -7.93
  Span (best-fit): 109.5
  Top (best-fit): 107.8
W269A-1 (run 1)
  Bottom (best-fit value): -6.112
  LogEC50 (best-fit value): -9.221
  Span (best-fit value): 105.6
  Top (best-fit value): 99.48
W269A-2 (run 2)
  Bottom (best-fit value): -8.179
  LogEC50 (best-fit value): -9.298
  Span (best-fit value): 111.2
  Top (best-fit value): 103
W269A-3 (run 3)
  Bottom (best-fit value): -4.689
  LogEC50 (best-fit value): -9.219
  Span (best-fit value): 124.8
  Top (best-fit value): 120.1
Y50A, run 1, best-fit
  EC50: 3.61 nM
  LogEC50: -8.443
Y50A, run 2, best-fit
  EC50: 3.74 nM
  LogEC50: -8.427
Y50A, run 3, best-fit
  EC50: 3.4 nM
  LogEC50: -8.469
Y205A-1 (run 1)
  Bottom (best-fit value): 11.16
  LogEC50 (best-fit value): -9.464
  Span (best-fit value): 82.7
  Top (best-fit value): 93.87
Y205A-2 (run 2)
  Bottom (best-fit value): -6.723
  LogEC50 (best-fit value): -9.038
  Span (best-fit value): 105.5
  Top (best-fit value): 98.77
Y205A-3 (run 3)
  Bottom (best-fit value): 0.8743
  LogEC50 (best-fit value): -9.745
  Span (best-fit value): 102.6
  Top (best-fit value): 103.5
Y205R, run 1
  LogEC50: -9.464
  Span (best-fit): 104.7
  Top (best-fit): 106.2
Y205R, run 2
  LogEC50: -9.626
  Span (best-fit): 101.5
  Top (best-fit): 105.3
Y205R, run 3
  LogEC50: -8.061
  Span (best-fit): 97.31
  Top (best-fit): 99.13
Y302A-1 (run 1)
  Bottom (best-fit value), cAMP inhibition: 5.692
  LogEC50 (best-fit value), cAMP inhibition: -7.774
  Span (best-fit value), cAMP inhibition: 45.84
  Top (best-fit value), cAMP inhibition: 51.54
Y302A-2 (run 2)
  Bottom (best-fit value), cAMP inhibition: 6.053
  LogEC50 (best-fit value), cAMP inhibition: -7.903
  Span (best-fit value), cAMP inhibition: 53.55
  Top (best-fit value), cAMP inhibition: 59.6
Y302A-3 (run 3)
  Bottom (best-fit value), cAMP inhibition: 6.125
  LogEC50 (best-fit value), cAMP inhibition: -8.216
  Span (best-fit value), cAMP inhibition: 50.13
  Top (best-fit value), cAMP inhibition: 56.25
[5]
  Bottom: 3.363
  EC50: 0.994 nM
  LogEC50: -9.003
  Span: 99.71
  Top: 103.1
[6]
  Bottom: -15.5
  EC50: 0.816 nM
  LogEC50: -9.089
  Span: 125.3
  Top: 109.8
[7]
  Bottom: 3.745
  EC50: 0.665 nM
  LogEC50: -9.177
  Span: 105.4
  Top: 109.1
[8]
  Bottom: 11.53
  EC50: 17.8 nM
  LogEC50: -7.749
  Span: 105
  Top: 116.5
[9]
  Bottom: 16.26
  EC50: 15.1 nM
  LogEC50: -7.822
  Span: 108.4
  Top: 124.7
[10]
  Bottom: 6.76
  EC50: 23.9 nM
  LogEC50: -7.621
  Span: 101.4
  Top: 108.2
[11]
  EC50: 43.6 nM
  LogEC50: -7.36
  Span: 102.2
  Top: 104
[12]
  EC50: 28.2 nM
  LogEC50: -7.55
  Span: 100.8
  Top: 101.3
[13]
  EC50: 21.3 nM
  LogEC50: -7.671
  Span: 85.31
  Top: 86.48
[14]
  Bottom: 9.955
  EC50: 90.2 nM
  LogEC50: -7.045
  Span: 84.48
  Top: 94.43
[15]
  Bottom: -12.27
  EC50: 7.12 nM
  LogEC50: -8.147
  Span: 105.2
  Top: 92.96
[16]
  Bottom: 15.94
  EC50: 1.5 nM
  LogEC50: -8.823
  Span: 58.67
  Top: 74.61
read-out: EC50 (best-fit value), cAMP inhibition, D295A-1 (run 1)
  EC50: 16 nM
read-out: EC50 (best-fit value), cAMP inhibition, D295A-2 (run 2)
  EC50: 15.9 nM
read-out: EC50 (best-fit value), cAMP inhibition, D295A-3 (run 3)
  EC50: 18.1 nM
read-out: EC50 (best-fit value), cAMP inhibition, F272A-1 (run 1)
  EC50: 17.7 nM
read-out: EC50 (best-fit value), cAMP inhibition, F272A-2 (run 2)
  EC50: 26.7 nM
read-out: EC50 (best-fit value), cAMP inhibition, F272A-3 (run 3)
  EC50: 145 nM
read-out: EC50 (best-fit value), cAMP inhibition, F294A-1 (run 1)
  EC50: 3.57 nM
read-out: EC50 (best-fit value), cAMP inhibition, F294A-2 (run 2)
  EC50: 4.21 nM
read-out: EC50 (best-fit value), cAMP inhibition, F294A-3 (run 3)
  EC50: 0.15 nM
read-out: EC50 (best-fit value), cAMP inhibition, K291A-1 (run 1)
  EC50: 4.34 nM
read-out: EC50 (best-fit value), cAMP inhibition, K291A-2 (run 2)
  EC50: 1.48 nM
read-out: EC50 (best-fit value), cAMP inhibition, K291A-3 (run 3)
  EC50: 6.95 nM
read-out: EC50 (best-fit value), cAMP inhibition, N276A-1 (run 1)
  EC50: 0.993 nM
read-out: EC50 (best-fit value), cAMP inhibition, N276A-2 (run 2)
  EC50: 2.19 nM
read-out: EC50 (best-fit value), cAMP inhibition, N276A-3 (run 3)
  EC50: 1.77 nM
read-out: EC50 (best-fit value), cAMP inhibition, Y302A-1 (run 1)
  EC50: 16.8 nM
read-out: EC50 (best-fit value), cAMP inhibition, Y302A-2 (run 2)
  EC50: 12.5 nM
read-out: EC50 (best-fit value), cAMP inhibition, Y302A-3 (run 3)
  EC50: 6.08 nM
read-out: EC50 (best-fit value), F208A-1 (run 1)
  EC50: 14.9 nM
read-out: EC50 (best-fit value), F208A-2 (run 2)
  EC50: 98.5 nM
read-out: EC50 (best-fit value), F208A-3 (run 3)
  EC50: 79.3 nM
read-out: EC50 (best-fit value), F265A-1 (run 1)
  EC50: 11.3 nM
read-out: EC50 (best-fit value), F265A-2 (run 2)
  EC50: 14.7 nM
read-out: EC50 (best-fit value), F265A-3 (run 3)
  EC50: 9.82 nM
read-out: EC50 (best-fit value), P220A-1 (run 1)
  EC50: 3.5 nM
read-out: EC50 (best-fit value), P220A-2 (run 2)
  EC50: 3.09 nM
read-out: EC50 (best-fit value), P220A-3 (run 3)
  EC50: 3.08 nM
read-out: EC50 (best-fit value), W269A-1 (run 1)
  EC50: 0.601 nM
read-out: EC50 (best-fit value), W269A-2 (run 2)
  EC50: 0.503 nM
read-out: EC50 (best-fit value), W269A-3 (run 3)
  EC50: 0.604 nM
read-out: EC50 (best-fit value), Y205A-1 (run 1)
  EC50: 0.344 nM
read-out: EC50 (best-fit value), Y205A-2 (run 2)
  EC50: 0.915 nM
read-out: EC50 (best-fit value), Y205A-3 (run 3)
  EC50: 0.18 nM
